Assay results taken from US9289464B2, “Method for diagnosing and treating NIS-expressing carcinomas and metastases” (priority 2002, dated 2016).

Legend:
[1] = system: breast cancer cell line MCF-7; assay: Iodide uptake assay (Na125I) in MCF-7 cells; type: cell-based, human
Procedure: (§1) All the cell lines used herein were purchased from the Deutschen Sammlung von Mikroorganismen und Zelikulturen (DSMZ; Brunswick, Germany, DSMZ No.: MCF-7 (ACC 115)). MCF-7 cells were cultured in RPMI 1640 medium with 10% FCS (fetal calf serum) and addition of 1× nonessential amino acids, 0.01 mg/ml bovine insulin and 5% penicillin/streptomycin. The HeLa cells were cultured in RPMI 1640 medium. All the reagents for the cell culture were, unless indicated otherwise, purchased from Invitrogen, Karlsruhe, Germany. Cells were cultured in plates with 24 wells (24 Well Plates) for 24 h. The cells were then washed and subsequently the substances to be tested (ciglitazone, trans-retinoic acid with or without KClO4) were added in fresh medium. […] After the incubation, the cells were washed twice with ice-cold RPMI 1640 and lysed in 2% SDS-PAGE sample buffer (0.0625 M Tris-HCl, pH 6.8) with 1 U/μl Benzonase (Merck KgaA, Darmstadt, Germany). The ^125I uptake was measured in a gamma counter. An aliquot of each sample was employed to determine the protein concentration using the DC protein determination kit from Bio-Rad (Munich, Germany) in order thus to achieve standardization with different numbers of cells.

NIS = target: T1, NIS (Homo sapiens, UniProt Q92911); assay: Blocking experiments: iodide uptake in presence of KClO4; type: cell-based; details: 30 mM KClO4; MCF-7 treated with tRA with or without CIG
T1 construct: NIS gene expression is increased synergistically by treatment of CIG in combination with retinoic acid in the breast cancer cell line MCF-7; endogenous in cells; host or cells: MCF-7 (DSMZ ACC 115)
T1 sequence (Q92911 1-643): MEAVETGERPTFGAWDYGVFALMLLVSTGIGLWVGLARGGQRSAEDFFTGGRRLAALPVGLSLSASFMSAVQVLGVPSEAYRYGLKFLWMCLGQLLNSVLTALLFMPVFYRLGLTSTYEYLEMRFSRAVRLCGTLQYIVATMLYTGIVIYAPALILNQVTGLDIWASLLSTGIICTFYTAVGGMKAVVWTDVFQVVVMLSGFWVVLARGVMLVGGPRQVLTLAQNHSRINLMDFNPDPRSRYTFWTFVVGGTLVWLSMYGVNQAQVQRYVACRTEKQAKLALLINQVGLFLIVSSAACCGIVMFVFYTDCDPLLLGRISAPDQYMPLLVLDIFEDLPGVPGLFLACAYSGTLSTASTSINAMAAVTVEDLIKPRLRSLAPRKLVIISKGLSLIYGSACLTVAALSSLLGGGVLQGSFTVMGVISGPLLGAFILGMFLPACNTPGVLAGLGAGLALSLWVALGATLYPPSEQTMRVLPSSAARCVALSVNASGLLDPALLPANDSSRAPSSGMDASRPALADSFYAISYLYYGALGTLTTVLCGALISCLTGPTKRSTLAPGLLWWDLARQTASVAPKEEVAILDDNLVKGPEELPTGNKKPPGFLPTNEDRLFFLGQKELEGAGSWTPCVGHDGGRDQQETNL
Procedure: Cells were cultured in plates with 24 wells (24 Well Plates) for 24 h. The cells were then washed and subsequently the substances to be tested (ciglitazone, trans-retinoic acid with or without KClO4) were added in fresh medium. For the iodide uptake, the cells were first washed twice in prewarmed RPMI 1640 medium without FCS, and then incubated in 1 ml of RPMI 1640 without FCS which comprised 0.1 μCi/ml Na^125I (specific activity: 10 mCi/mmol, Amersham Biosciences, Freiburg, Germany) and 10 μM NaI/well for 1 h.
(§2) After the incubation, the cells were washed twice with ice-cold RPMI 1640 and lysed in 2% SDS-PAGE sample buffer (0.0625 M Tris-HCl, pH 6.8) with 1 U/μl Benzonase (Merck KgaA, Darmstadt, Germany). The ^125I uptake was measured in a gamma counter. An aliquot of each sample was employed to determine the protein concentration using the DC protein determination kit from Bio-Rad (Munich, Germany) in order thus to achieve standardization with different numbers of cells.
In order to test the specificity of NIS-mediated iodide uptake, the experiments described in the previous exemplary embodiment were also carried out in the presence of 30 mM KClO4, the strongest specific NIS inhibitor.

[2] = system: non-small-cell lung cancer cell line A549; details: cited from earlier work
[3] = system: prostate cancer cell line LNCaP; details: cited from earlier work
[4] = system: choriocarcinoma cell line JEG-3; details: cited from earlier work
[5] = system: cervical carcinoma cell line HeLa; assay: Iodide uptake assay (Na125I) in HeLa cells; type: cell-based; details: 1 μM tRA with or without 5 μM CIG, 48 h
Procedure: as §1

[6] = system: non-small-cell lung cancer cell line H460; details: cited from earlier work
HEK-293 cells = assay: Iodide uptake assay in HEK-293 cells (analogous experiment); type: cell-based; details: results not shown
Procedure: as §2, with “Cells were cultured in plates with 24 wells (24 Well Plates) for 24 h. The cells were then washed and subsequently the substances to be tested (ciglitazone, trans-retinoic acid with or without KClO4) were added in fresh medium. […] After” for “After”

NIS mRNA = NIS mRNA concentration in treated cells; type: cell-based; details: cells treated with tRA

CC1(COc2ccc(CC3SC(=O)NC3=O)cc2)CCCCC1 (stereo not shown) [CIG, ciglitazone]
effect on iodide uptake (in words) ([1]; 1 μM tRA and/or 5 μM CIG): no effect

[K+].[O-][Cl+3]([O-])([O-])[O-] [KClO4]
effect on iodide uptake of breast cancer cells (NIS blocking) (NIS): inhibited

CC1=C(/C=C/C(C)=C/C=C/C(C)=C/C(=O)O)C(C)(C)CCC1 [tRA, trans-retinoic acid]
induction of iodide uptake [2]: does not induce iodide uptake | induction of iodide uptake [3]: does not induce iodide uptake | induction of iodide uptake [4]: does not induce iodide uptake | induction of iodide uptake (in words) [5]: no induction of iodide uptake | induction of iodide uptake [6]: does not induce iodide uptake | induction of iodide uptake (in words) (HEK-293 cells): same results | time at which maximum iodide uptake was reached ([1]; 1 μM tRA): 48 h | concentration of NIS mRNA (NIS mRNA): distinctly increased
